Test results taken from patent US12416052B2, “Capturing, concentrating, and detecting microbes in a sample using magnetic ionic liquids and recombinase polymerase amplification” (priority 2019, dated 2025).

Assays:
Experiment in all cases: MIL-based whole-cell extraction
E. coli O157:H7 N317-3-1 = test system: E. coli O157:H7 N317-3-1; parameters: species or system Escherichia coli; conditions: 1×10^6 CFU mL^−1 in TSB, 15 μL MIL
Method: (§1) A universal schematic for MIL-based cell extraction is depicted in FIG. 7B. A 1 mL volume of diluted cell suspension was added to a flat-bottomed 4-mL screw cap glass vial. Fifteen microliters of either the Ni(II) or Dy(III) MIL was added and dispersed into microdroplets by vortex agitation for 30 s. The aqueous phase was decanted following dispersive extraction, and the MIL was subjected to a brief wash step using 1 mL of nuclease-free water (Integrated DNA Technologies, Coralville, IA, USA) to ensure adequate removal of loosely or incidentally bound cells. After washing, release of viable cells from the MIL extraction phase was carried out using a “back-extraction” step accomplished through addition of 1 mL of an ionically-rich nutritive medium comprised of 20 g L^−1 tryptone and 10 g L^−1 NaCl, followed by a 120 s vortex step. After back-extraction, aliquots of the cell-enriched back-extraction medium were enumerated using the track dilution method using 100×100 mm square, gridded TSA, BSA, CA or VRBGA plates.
(§2) Following back-extraction, aliquots of the cell-enriched back-extraction medium were serially diluted in 0.1% peptone water and a 10 μL aliquot of each dilution was applied to a separate lane on square plates containing an appropriate agar medium. The plates were then tilted at an approximately 80° angle for 15 min to allow the droplets to travel toward the opposite end of the plate. The plates were incubated for 24 h at 37° C. (TSA, VRBGA), for 48 h at 37° C. (BSA) or for 24 h at 37° C. (CA). Colonies were counted and colony forming units (CFU) were determined. The enrichment factor (EF) for MIL-based extraction was calculated using Equation 1, where CMIL represents the concentration of bacteria in suspension following extraction using the MIL and CS is the initial concentration of bacteria in the sample.
(§3) In order to explore the broader utility of our approach, evaluation of additional cell types is needed. We began this extended evaluation of the Ni(II) MIL with seven representative DNA subgroups of Salmonella and eight strains of E. coli O157:H7. Briefly, a 1 mL aliquot of TSB was inoculated with 1×10^6 CFU mL^−1 of bacteria, and spiked with 15 μL of the Ni(II) MIL. MIL-based extraction was performed and 10 μL aliquots of the back-extraction solution were enumerated using TSA and BSA plates (Salmonella) or TSA plates (E. coli O157:H7). […] We later determined that VRBGA was a suitable common medium for this purpose and used this in our statistical analysis. Average CFU counts were compared to standards that were not exposed to the Ni(II) MIL. Enrichment factors were calculated for Salmonella on both non-selective (TSA) and selective agars (BSA) and for E. coli O157:H7 on non-selective agar (TSA). […] Note: As BSA is a Salmonella-specific agar E. coli O157:H7 was not plated to BSA in this example.

E. coli O157:H7 N886-71 = test system: E. coli O157:H7 N886-71; parameters: species or system Escherichia coli; conditions: 1×10^6 CFU mL^−1 in TSB, 15 μL MIL
Method: as §1, §2, §3

E. coli O157:H7 N549-3-1 = test system: E. coli O157:H7 N549-3-1; parameters: species or system Escherichia coli; conditions: 1×10^6 CFU mL^−1 in TSB, 15 μL MIL
Method: as §1, §2, §3

E. coli O157:H7 N366-2-2 = test system: E. coli O157:H7 N366-2-2; parameters: species or system Escherichia coli; conditions: 1×10^6 CFU mL^−1 in TSB, 15 μL MIL
Method: as §1, §2, §3

E. coli O157:H7 N336-4-1 = test system: E. coli O157:H7 N336-4-1; parameters: species or system Escherichia coli; conditions: 1×10^6 CFU mL^−1 in TSB, 15 μL MIL
Method: as §1, §2, §3

S. bongori = test system: S. bongori; parameters: species or system Salmonella bongori; conditions: 1×10^6 CFU mL^−1 in TSB, 15 μL MIL
Method: (§4) A universal schematic for MIL-based cell extraction is depicted in FIG. 7B. A 1 mL volume of diluted cell suspension was added to a flat-bottomed 4-mL screw cap glass vial. Fifteen microliters of either the Ni(II) or Dy(III) MIL was added and dispersed into microdroplets by vortex agitation for 30 s. The aqueous phase was decanted following dispersive extraction, and the MIL was subjected to a brief wash step using 1 mL of nuclease-free water (Integrated DNA Technologies, Coralville, IA, USA) to ensure adequate removal of loosely or incidentally bound cells. […]
as §2, with “The plates were then tilted at an approximately 80° angle for 15 min to allow the droplets to travel toward the opposite end of the plate. The plates were incubated for 24 h at 37° C. (TSA, VRBGA), for 48 h at 37° C. (BSA) or for 24 h at 37° C. (CA).” left out
In order to explore the broader utility of our approach, evaluation of additional cell types is needed. […] We later determined that VRBGA was a suitable common medium for this purpose and used this in our statistical analysis. […]

[1] = test system: S. enterica subsp. houtenae; parameters: species or system Salmonella enterica; conditions: 1×10^6 CFU mL^−1 in TSB, 15 μL MIL
Method: as §1, §2, §3

[2] = test system: S. enterica subsp. salamae; parameters: species or system Salmonella enterica; conditions: 1×10^6 CFU mL^−1 in TSB, 15 μL MIL
Method: as §1, §2, §3

[3] = test system: S. enterica subsp. indica; parameters: species or system Salmonella enterica; conditions: 1×10^6 CFU mL^−1 in TSB, 15 μL MIL
Method: as §1, §2, §3

[4] = test system: P. carotovorum pv. carotovorum; parameters: species or system Pectobacterium carotovorum; conditions: EF determined using Columbia Agar
Method: as §4
as §2, with “The plates were then tilted at an approximately 80° angle for 15 min to allow the droplets to travel toward the opposite end of the plate. The plates were incubated for 24 h at 37° C. (TSA, VRBGA), for 48 h at 37° C. (BSA) or for 24 h at 37° C. (CA).” left out

SMILES: CCCCCCCCCCCCCC[P+](CCCCCC)(CCCCCC)CCCCCC.O=C([CH-]C(=O)C(F)(F)F)C(F)(F)F.O=C([CH-]C(=O)C(F)(F)F)C(F)(F)F.O=C([CH-]C(=O)C(F)(F)F)C(F)(F)F.[Ni+2] [Ni(II) MIL, [P66614^+][Ni(hfacac)3^−]]
- Enrichment Factor (TSA) (E. coli O157:H7 N317-3-1): 4
- Enrichment Factor (TSA) (E. coli O157:H7 N886-71): 4
- Enrichment Factor (TSA) (E. coli O157:H7 N549-3-1): 8
- Enrichment Factor (TSA) (E. coli O157:H7 N366-2-2): 4
- Enrichment Factor (TSA) (E. coli O157:H7 N336-4-1): 3
- Enrichment Factor (BSA) (S. bongori): 4
- Enrichment Factor (TSA) (S. bongori): 4
- Enrichment Factor (BSA) [1]: 8
- Enrichment Factor (TSA) [1]: 8
- Enrichment Factor (BSA) [2]: 9
- Enrichment Factor (TSA) [2]: 12
- Enrichment Factor (BSA) [3]: 4
- Enrichment Factor (TSA) [3]: 3
- Enrichment Factor [4]: 24
